Legend:
CD31, FGF and VEGF = settings: rabbit alkaline burn; 10 days treatment; immunostaining
Method: (§1) The rabbits were randomly divided into an alkaline burn group (n=5) and a peptide treated group (n=5). In the alkaline burn group, normal saline was administered 4 times daily and in the peptide-treated group, Hyp-[…] peptide of 10 mg/mL was administered 4 times daily, and the left eye was used as a control group.
(§2) Tissue sections were cut into 6 μm thickness and used for immunohistochemical analysis.
(§3) First, tissue sections were fixed with 3.5% paraformaldehyde and permeated with 0.1% Triton X-100, inactivated 2% bovine serum albumin (BSA; all from Sigma, St. Louis, Mo.) and incubated overnight at 4° C. with anti-CD31(1:1,000; Abcam Inc., Cambridge, Mass.), anti-bFGF(1:1,000; Bioss Inc., Woburn, Mass.), anti-IL-1β, anti-IL-6(1:1,000; Cloud-Clone Corp., Houston, Tex.), anti-MMP-9, anti-ICMA-1, anti-TNFα, anti-macrophage/mononucleus (1:1,000; Abnova Crop., Taipei, Taiwan) and anti-VEGF-A (Abbiotec, San Diego, Calif.) primary antibody.
(§4) Thereafter, the secondary antibody was incubated for 45 minutes in the section and the immunological response was visualized with diaminobenzidine (DAB) chromogen, and the section was contrast-stained with Mayer's hematoxylin (Sigma) for 30 seconds at room temperature.
(§5) The dyed sections were photographed by a virtual microscope (NanoZoomer 2.0 RS, Hamamatsu, Japan).

[1] = tested on: macrophages, TNFα, ICAM-1, IL-1β, IL-6 and MMP-9; settings: rabbit alkaline burn; 10 days treatment; immunostaining
Method: as §1, §2, §3, §4, §5

VEGF, ICAM and MCP-1 = assay: Quantitative real-time RT-PCR of retina and choroid, laser CNV model; type: in vivo, C57BL/6 mice; settings: mouse, 14 days after laser, 5 μg
Method: In order to confirm the inhibitory effect of hydroxy proline-GQDGLAGPK on neovascularization-related gene expression, RNA was extracted using RNeasy Mini kit (Qiagen) in mixture of retina and choroid of extracted mice eyeballs, and cDNA was synthesized by using oligo(dT) primer and reverse transcriptase. PCR products were amplified using the specific primer set (COSMOGENETECH, Korea) shown in Table 1 and SYBR Green PCR 2X PreMix (Enzynomics) and for the PCR conditions, the samples were incubated at 95° C. for 10 minutes, and 40 PCR cycles at 95° C. for 15 seconds, 60° C. for 30 seconds and 72° C. for 15 seconds, were performed. Relative quantification was calculated using 2-(DDCT) method [Livak and Schmittgen, 2001; DDCT=(CT, target-CT, actin) control group (CT, target-CT, actin) control group].
After 14 days of laser irradiation in mouse, RNA was extracted from retina and choroid to analyze the gene expression by real-time RT-PCR.

[2] = tested on: TNF-α, ICAM-1, VCAM-1, MMP-2 and MMP-9; settings: 10 days of treatment after removal of dry stress
Method: NOD.B10.H2^b mice were purchased from Jackson Laboratory (Bar Harbor, Me., USA). Animal experiments were carried out in accordance with the guidelines approved by the University of Inje (No.; 2014-029) and ARVO regarding animal use for eye and vision research. NOD.B10.H2^b mice at 12-16 weeks old were exposed to 40-50% ambient humidity and ventilation using a fan for 18 hours a day as dry stress and subcutaneously injected with 0.5 mg/0.2 mL muscarinic receptor blocker. In addition, scopolamine hydrobromide (Sigma-Aldrich, St. Louis, Mo.) was injected alternately to the […] hips four times a day for 10 days at 9 am, […].
After 10 days of ocular dry stress, the scopolamine injection was stopped, and switched to a normal humidity and temperature environment and the dry stress was removed, 10 mg/ml Hyp-[…] and collagen were dissolved in normal saline to administer 5 μL each 5 times a day for 10 days, and normal saline and 0.1% HA were administered to the eyeball 5 times a day for 10 days. Three mice were used in each of the six experimental groups using both eyes of the mice and all experiments were repeated.

Substance: hydroxy proline-GQDGLAGPK [Hyp-GQDGLAGPK]
- expression of CD31, FGF and VEGF in epithelium, subepithelium and matrix (CD31, FGF and VEGF): significant decreases
- expression of MMP-9 in the cornea [1]: inhibited
- expression of inflammatory factors TNFα, IL-1β, IL-6 and ICAM-1 [1]: decreased
- expression of macrophages in the cornea [1]: effectively inhibited
- MCP-1 gene expression in retina and choroid (VEGF, ICAM and MCP-1; laser-treated group increased about 10 times): significantly decreased
- VEGF gene expression in retina and choroid (VEGF, ICAM and MCP-1; laser-treated group increased about 55 times): decreased to the level similar to that of the laser-untreated group
- ICAM gene expression in retina and choroid (VEGF, ICAM and MCP-1; laser-treated group increased about 300 times): significantly decreased
- expression of inflammation-related factors in the lacrimal gland compared with CsA, DQS and HA treated mice [2]: significantly inhibited
- expression of inflammation-related factors (TNF-α, ICAM-1, VCAM-1, MMP-2, MMP-9) in the lacrimal gland ([2]; immunostaining): markedly reduced

Reference: patent US10532084B2, “Chondrocyte extracellular matrix-derived peptide” (EYEBIO KOREA, priority 2016, dated 2020)
